Measurements: ChEMBL document CHEMBL3596090, “Discovery of novel pyrazole-containing benzamides as potent RORγ inverse agonists” (Bioorg Med Chem Lett, 2015)
Converted amounts (≈) assume the structure as drawn.

Key:
[1] = Percentage unbound in human plasma; type: ADME, cell-free
[2] = Percentage unbound in rat plasma; type: ADME, cell-free
[3] = Kinetic aqueous solubility of the compound; type: physicochemical; conditions: buffer; read-out: Kinetic_solubility
[4] = molecular target: T1, Nuclear receptor ROR-gamma (Mus musculus, UniProt P51450); assay: Inverse agonist activity at RORgamma in C57BL/6 mouse splenocytes assessed as reduction of IL-17 production after 2 days by ELISA; type: cell-based
T1 sequence (P51450 whole entry): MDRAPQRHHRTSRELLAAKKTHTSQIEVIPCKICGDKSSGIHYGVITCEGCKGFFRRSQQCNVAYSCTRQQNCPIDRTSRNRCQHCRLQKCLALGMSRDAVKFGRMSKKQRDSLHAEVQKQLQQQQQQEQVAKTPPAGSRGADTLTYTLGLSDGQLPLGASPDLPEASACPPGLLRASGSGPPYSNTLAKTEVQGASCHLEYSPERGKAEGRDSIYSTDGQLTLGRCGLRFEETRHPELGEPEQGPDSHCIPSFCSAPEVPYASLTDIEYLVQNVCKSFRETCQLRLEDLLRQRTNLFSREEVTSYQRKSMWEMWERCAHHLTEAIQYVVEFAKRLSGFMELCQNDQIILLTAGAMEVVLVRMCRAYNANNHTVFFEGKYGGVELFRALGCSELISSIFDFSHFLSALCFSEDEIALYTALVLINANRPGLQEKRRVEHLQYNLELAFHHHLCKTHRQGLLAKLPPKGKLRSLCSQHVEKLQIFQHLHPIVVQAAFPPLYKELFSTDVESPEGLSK

Row | SMILES | fraction unbound [1] | fraction unbound [2] | solubility kinetic [3] [µg/mL] | EC50 [4] [nM]
1 | [2H]C([2H])([2H])N(C(=O)c1c(F)cccc1Cl)c1ccc(-c2cc(C(N)=O)nn2C(C)C)cc1OCC(F)(F)F | 0.059 | 0.031 | 32 (≈ 62 µM) | 2000
2 | [2H]C([2H])([2H])N(C(=O)c1c(F)cccc1Cl)c1ccc(-c2cnn(C)c2C(C)C)cc1OCC(F)(F)F | 0.009 | 0.006 | < 0.1 | 818
3 | [2H]C([2H])([2H])N(C(=O)c1c(F)cccc1Cl)c1ccc(-c2cc(NC(C)=O)nn2C(C)C)cc1OCC(F)(F)F | – | – | 27 (≈ 50.9 µM) | –
4 | [2H]C([2H])([2H])N(C(=O)c1c(F)cccc1Cl)c1ccc(-c2cc(NC(C)=O)nn2C(C)C)cc1OCC(C)C | 0.003 | 0.002 | – | –
5 | [2H]C([2H])([2H])N(C(=O)c1c(F)cccc1Cl)c1ccc(-c2cc(NC(=O)CC)nn2C(C)C)cc1N1CC2CC2C1 (stereo not drawn) | – | – | – | 33
6 | [2H]C([2H])([2H])N(C(=O)c1c(F)cccc1Cl)c1ccc(-c2cc(NC(=O)C3CC3)nn2C(C)C)cc1N1CC2CC2C1 (stereo not drawn) | – | – | – | 88
7 | [2H]C([2H])([2H])N(C(=O)c1c(F)cccc1Cl)c1ccc(-c2cc(NC(=O)[C@H]3C[C@@H](O)C3)nn2C(C)C)cc1N1CC2CC2C1 (stereo partly drawn) | – | – | – | 134
8 | [2H]C([2H])([2H])N(C(=O)c1c(F)cccc1Cl)c1ccc(-c2cc(NC(=O)[C@H]3C[C@H](O)C3)nn2C(C)C)cc1N1CC2CC2C1 (stereo partly drawn) | – | – | – | 134
9 | [2H]C([2H])([2H])N(C(=O)c1c(F)cccc1Cl)c1ccc(-c2cc(NC(=O)CO)nn2C(C)C)cc1N1CC2CC2C1 (stereo not drawn) | – | – | – | 120
10 | [2H]C([2H])([2H])N(C(=O)c1c(F)cccc1Cl)c1ccc(-c2cc(NC(=O)NC)nn2C(C)C)cc1N1CC2CC2C1 (stereo not drawn) | – | – | – | 354
11 | [2H]C([2H])([2H])N(C(=O)c1c(F)cccc1Cl)c1ccc(-c2cc(NC(=O)N3CC4(COC4)C3)nn2C(C)C)cc1N1CC2CC2C1 (stereo not drawn) | – | – | – | 148
12 | [2H]C([2H])([2H])N(C(=O)c1c(F)cccc1Cl)c1ccc(-c2cc(NC(C)=O)nn2C2CCC2)cc1N1CC2CC2C1 (stereo not drawn) | 0.003 | 0.0004 | 0.5 (≈ 0.952 µM) | 199
13 | [2H]C([2H])([2H])N(C(=O)c1c(F)cccc1Cl)c1ccc(-c2cc(NC(C)=O)nn2CC(C)(C)C)cc1N1CC2CC2C1 (stereo not drawn) | – | – | 0.8 (≈ 1.48 µM) | –
